This is an account of results in patent publication EP4198126B1 (priority 2021, dated 2023).

Like-named read-outs stand apart in the source and are kept apart here.

Experiment [1] has as its system HEK293 eTLR cells. Particulars: for HDR rates: compounds added 24 hours post-transfection, FACS 72 h after transfection, Figure 2A.
For experiment [2], the system named is HEK293 eTLR cells. The note with it: treated four hours before transfection; FACS 72 h after transfection; Figure 3.
Experiment [3] concerns CRISPR-mediated homology-directed repair (HDR). The note with it: description of the known compound; cited from earlier work.

As for NU7441, the HDR rates result in the experiment on HEK293 eTLR cells [1] is on record as “increased HDR rates”.
In the case of `Cc1cc2ncnn2cc1Nc1ncc2c(n1)n(C1CCOCC1)c(=O)n2C` [AZD-7648], the HDR rates result is given as “increased HDR rates” in the experiment on HEK293 eTLR cells [1] and “significantly higher HDR rates than ITD Alt-R HDR Enhancer V2” in the experiment on HEK293 eTLR cells [2]. For the same molecule, in the experiment with HEK293 eTLR cells [1] (range tested 0.5 to 2 µM, Figure 2B), the “concentration at which the HDR rates are maximally increased” value is 0.5 µM.
Turning to `COc1ccc([C@@H](O)c2cc(-c3ncnc4cc(N5CCOCC5)ccc34)c(F)cc2Cl)nn1` [M3814], the HDR rates result is recorded as “increased HDR rates” in the experiment on HEK293 eTLR cells [1] and “significantly higher HDR rates than ITD Alt-R HDR Enhancer V2” in the experiment with HEK293 eTLR cells [2].
Consider `c1cnccn1` [SCR7 pyrazine], for which, in experiment [3], the “enhancement of CRISPR-mediated homology-directed repair (HDR)” value is reported as “up to 19 fold”.
